Measured values published in patent US5532167A, “Substrate specificity of protein kinases” (Beth Israel Hospital, priority 1994, dated 1996).
Where no end group is shown, it is not given here.

Experiments:
EGF receptor = target: T1, EGF receptor (Homo sapiens, UniProt P00533); assay: Kinetics of EGF receptor phosphorylating synthetic peptide; format: biochemical; details: peptide as substrate; 10 μM ATP, 10 mM MnCl2, pH 7.0
T1 construct: made in house
Source text: (§1) The degenerate peptide library constructed as described in Example 1, with either serine or tyrosine at the 7th position, was used as a substrate for several different protein kinases. Protein kinase A (bovine) was obtained commercially (Sigma). GST-cyclin B/p33^cdc2 (Atherton-Fessler et al. (1993) Mol. Cell. Biol. 13:1675-1685), GST-cyclinA/p33^CDK2 (Atherton-Fessler et al. (1993) Mol. Cell. Biol. 13:1675-1685), human EGF receptor, chicken pp60^v-src, polyoma virus middle T antigen/pp60^c-src (Piwnica-Worms et al. (1990) J. Virol. 64:61-68) and pp92^c-pfs/fes were expressed by baculoviruses. The baculovirus-expressed protein kinases were immobilized on protein A beads using precipitating antibodies or on glutathione-agarose bead for kinases obtained as GST fusion proteins to minimize the problem of separating the peptides from the enzyme or impurities in the enzyme. […]
(§2) The peptide sequences predicted to be optimal substrates for the cyclindependent serine/threonine kinases and for pp60^v-src tyrosine kinase were synthesized to determine whether they are indeed good substrates for these kinases. […] After 2 and a half minutes incubation, the supernatants were spotted on phosphocellulose paper (p81), washed four times with 75 mM phosphoric acid, and radioactivity counted on a scintillation counter. […] The Km and Vmax were calculated using the Kaleidagraph computer software.

cyclin A/p33^CDK2 = target: T2, cyclin A/p33^CDK2 (Homo sapiens, UniProt P24941); assay: Kinetics of cyclin A/p33CDK2 phosphorylating synthetic peptide; format: biochemical; details: peptide as substrate; 10 μM ATP, 10 mM MgCl2, pH 7.0
T2 construct: made in house
Source text: as §1, §2

PKA = PKA (Bos taurus, UniProt P00517); details: relative to Kemptide; cited from earlier work

CC[C@H](C)[C@H](NC(=O)[C@H](CCC(=O)O)NC(=O)[C@H](CCC(=O)O)NC(=O)[C@H](CCC(=O)O)NC(=O)[C@H](C)N)C(=O)N[C@@H](Cc1ccc(O)cc1)C(=O)NCC(=O)N[C@@H](CCC(=O)O)C(=O)N[C@@H](Cc1ccccc1)C(=O)N[C@@H](CCC(=O)O)C(=O)N[C@@H](C)C(=O)N[C@@H](CCCCN)C(=O)N[C@@H](CCCCN)C(=O)N[C@@H](CCCCN)C(=O)N[C@@H](CCCCN)C(=O)O [AEEEIYGEFEAKKKK, Ala-Glu-Glu-Glu-Ile-Tyr-Gly-Glu-Phe-Glu-Ala-Lys-Lys-Lys-Lys]
Km (EGF receptor): 34 µM

ARRPMSPKKKA [ARRPMSPKKKA, Ala-Arg-Arg-Pro-Met-Ser-Pro-Lys-Lys-Lys-Ala]
Km (cyclin A/p33^CDK2): 15 µM

Optimal peptide substrate based on fragment of Walsh inhibitor: known PKA peptide substrate, sequence G R T G R R N S I, from the literature (GRTGRRNSI)
fold lower KM than Kemptide (PKA): 40 fold
